Measurements taken from US10322118B2, “Compounds and methods for inhibiting Cif virulence factor” (priority 2012, dated 2019).
Values joined by “and” are separate entries in the source; they are usually repeats but may differ in a detail not shown here. Equal values may be shown once. Where a name gives a salt, the structure may show the parent alone. Read-outs that look alike come from different tables or passages of the source.

Assays:
Cif [1] = biological target: T1, Cif (Pseudomonas aeruginosa (strain UCBPP-PA14), UniProt A0A0H2ZD27); experiment: Kinetics of 14,15-EET hydrolysis by Cif; type: biochemical; details: [E]=0.2 μM
Experimental: Detailed kinetic information on the interaction of Cif with an endogenous arachidonic acid-derived signaling epoxide, 14,15-EET (14,15-epoxyeicosa-5,8,11-trienoic acid), was also obtained.
Specifically, three concentrations of 14,15-EET were used (0.5, 5 and 50 μM), along with two different incubation times (90 and 180 minutes) and a low enzyme concentration ([E]=0.2 μM). The results were similar at 90 and 180 minutes, confirming that the assay was within the linear range of catalysis. Less than 5% of the substrate was converted: [S]=0.5 μM, v=0.003 pmol/minute; [S]=5 μM, v=0.02 pmol/minute; and [S]=50 μM, v=1.2 pmol/minute.

Cif [2] = biological target: T1, Cif; experiment: Primary high throughput screen with fluorogenic substrate CMNGC; type: biochemical;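 note: fluorescence of 200 µL reactions in 96-well plates read on a plate reader, inhibitor at tenfold molar excess over Cif enzyme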
Experimental: All high throughput screening assays were performed using 96-well plates, a 200 μL reaction volume, and a fluorescent plate reader. […] The fluorescent signal was measured after allowing the enzyme reaction to proceed for 60 minutes.
A library of 1600 FDA-approved compounds was screened for Cif inhibitory activity.
The screen was performed with only a 10-fold stoichiometric excess of inhibitor over Cif enzyme.

Cif [3] = biological target: T1, Cif; experiment: Secondary screen (sextuplicate) with fluorogenic substrate CMNGC; type: biochemical;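 note: purified enzyme assay in 96-well plates, 200 µL volume, fluorescence recorded each minute across a 60 min reaction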
Experimental: All high throughput screening assays were performed using 96-well plates, a 200 μL reaction volume, and a fluorescent plate reader. […] The fluorescent signal was measured after allowing the enzyme reaction to proceed for 60 minutes. The secondary screen was performed using the same conditions as the primary screen, except that fluorescent readings were taken every minute for the 60-minute reaction.
Subsequently, the filtered primary hits were retested to validate the observed inhibitory effect.

Cif [4] = biological target: T1, Cif; experiment: Re-test of screening hits with fresh preparations; type: biochemical
Cif [5] = biological target: T1, Cif; experiment: Fluorescent-based Cif inhibitory assay (CMNGC)
Excerpt: Cyano (6-methoxynaphthalen-2-yl) methyl glycidyl carbonate (CMNGC) was used as a fluorescent reporter substrate.
Reported IC50 values are the average of triplicates with at least two data points above and at least two below the IC50.

Cif [6] = biological target: T1, Cif; experiment: Screen of soluble epoxide hydrolase inhibitors for Cif inhibition; type: biochemical
Experimental: To identify additional inhibitors of the Cif enzyme, further screening assays were conducted.

Cif [7] = biological target: T1, Cif; experiment: Radioactivity epoxide hydrolase assay with tritium-labeled cis-stilbene oxide (CSO); type: biochemical; parameters: concentration or dose not given beside the values; details: for Inhibition (%): radioactivity assay, CSO substrate, initial screen and retest (Table 8)
[8] = primary screen, test compounds at 10 μM, 1 μM Cif, 25 μM CMNGC, 60 minutes
[9] = read-out: % Inhibition, Mean ± SD
[10] = read-out: % Inhibition, plate 1
[11] = read-out: % Inhibition, plate 2
[12] = read-out: % Inhibition, plate 3
[13] = read-out: % Inhibition, plate 4
[14] = read-out: % Inhibition, plate 5
[15] = read-out: % Inhibition, plate 6
[16] = Table 17 (R6-R9 series), CMNGC, average of triplicates
[17] = Table 18 (biphenyl R series), CMNGC, average of triplicates

T1 sequence (A0A0H2ZD27 25-319 limits assumed): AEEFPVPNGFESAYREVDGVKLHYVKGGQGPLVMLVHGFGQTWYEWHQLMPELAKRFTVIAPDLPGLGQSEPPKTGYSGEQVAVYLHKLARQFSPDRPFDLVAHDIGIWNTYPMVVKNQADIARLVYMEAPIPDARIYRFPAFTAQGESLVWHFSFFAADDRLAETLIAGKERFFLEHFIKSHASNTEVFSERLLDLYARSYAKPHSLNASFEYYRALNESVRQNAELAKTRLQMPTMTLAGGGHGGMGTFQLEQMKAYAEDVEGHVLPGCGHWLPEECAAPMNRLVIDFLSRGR

CCCCC[C@H]1O[C@H]1C/C=C\C/C=C\C/C=C\CCCC(=O)O (stereo in doubt) [14,15-EET, 14,15-epoxyeicosa-5,8,11-trienoic acid]
substrate converted (Cif [1]; 90 and 180 minutes): Less than 5%
v (hydrolysis rate) (Cif [1]; [S]=0.5 μM): 0.003 pmol/min
v (hydrolysis rate) (Cif [1]; [S]=5 μM): 0.02 pmol/min
v (hydrolysis rate) (Cif [1]; [S]=50 μM): 1.2 pmol/min

NC(CO)C(=O)NNCc1ccc(O)c(O)c1O (stereo not drawn) [Benserazide hydrochloride]
inhibition at 10 µM (Cif [2]; [8]): 86%
inhibition at 10 µM (Cif [3]; [9]): 79 ± 4%
inhibition at 10 µM (Cif [3]; [10]): 77%
inhibition at 10 µM (Cif [3]; [11]): 85%
inhibition at 10 µM (Cif [3]; [12]): 80%
inhibition at 10 µM (Cif [3]; [13]): 74%
inhibition at 10 µM (Cif [3]; [14]): 78%
inhibition at 10 µM (Cif [3]; [15]): 80%
inhibition with fresh solution (Cif [4]; freshly prepared solution): lost all observable inhibition
inhibition after aging of solution (Cif [4]; solution aged 3 months at room temperature): no detectable inhibition

CCOC(=O)CC(=O)Nc1cc(Br)c(Oc2cccc(C(C)C)c2)c(Br)c1 [Compound 1g]
Cif inhibitory activity at 50 μM (Cif [5]): fail to show inhibitory activity
IC50 (Cif [5]; [16]): > 50 µM

CCOC(=O)CC(=O)Nc1cc(Br)c(Oc2ccc(OC)c(C(C)C)c2)c(Br)c1 [Compound 1h]
Cif inhibitory activity at 50 μM (Cif [5]): fail to show inhibitory activity
IC50 (Cif [5]; [16]): > 50 µM

CCOC(=O)CC(=O)Nc1cc(Cl)c(Oc2ccc(O)c(C(C)C)c2)c(Cl)c1 [Compound 1i]
IC50 (Cif [5]; [16]): 3.8 µM

CCOC(=O)CC(=O)Nc1ccc(Oc2ccc(O)c(C(C)C)c2)c(Cl)c1 [Compound 1j]
IC50 (Cif [5]; [16]): 11.6 µM

CCOC(=O)CC(=O)Nc1cc(Cl)c(Oc2ccc(O)cc2)c(Cl)c1 [Compound 1k]
Cif inhibitory activity at 50 μM (Cif [5]): showed no inhibition
IC50 (Cif [5]; [16]): > 50 µM

CCOC(=O)CC(=O)Nc1cc(Cl)c(Oc2ccc(O)c(Br)c2)c(Cl)c1 [Compound 1l]
IC50 (Cif [5]; [16]): 4.9 µM

CCOC(=O)CC(=O)Nc1cc(Cl)c(Oc2ccc(O)c(I)c2)c(Cl)c1 [Compound 1m]
IC50 (Cif [5]; [16]): 3.8 µM

CCOC(=O)CC(=O)Nc1cc(Cl)c(Oc2ccc(O)c(C(F)(F)F)c2)c(Cl)c1 [Compound 1n]
IC50 (Cif [5]; [16]): 3 µM

C#Cc1cc(Oc2c(Cl)cc(NC(=O)CC(=O)OCC)cc2Cl)ccc1O [Compound 1p]
IC50 (Cif [5]; [16]): 2.9 µM

CCOC(=O)CC(=O)Nc1cc(Cl)c(Oc2ccc(O)cc2Br)c(Cl)c1 [Compound 1q]
IC50 (Cif [5]; [16]): 29.3 µM

CCC(=O)Nc1cc(Cl)c(Oc2ccc(O)c(-c3ccc(C(=O)O)cc3)c2)c(Cl)c1 [Compound 8b]
IC50 (Cif [5]; [17]): 10.5 µM

CCC(=O)Nc1cc(Cl)c(Oc2ccc(O)c(-c3cccc(C(N)=O)c3)c2)c(Cl)c1 [Compound 8d]
IC50 (Cif [5]; [17]): 0.46 µM

CCC(=O)Nc1cc(Cl)c(Oc2ccc(O)c(-c3ccc(C#N)cc3)c2)c(Cl)c1 [Compound 8e]
IC50 (Cif [5]; [17]): 11.9 µM

CCC(=O)Nc1cc(Cl)c(Oc2ccc(O)c(-c3cccc(C#N)c3)c2)c(Cl)c1 [Compound 8f]
IC50 (Cif [5]; [17]): 0.58 µM

CCC(=O)Nc1cc(Cl)c(Oc2ccc(O)c(-c3ccc(C(=O)NC)cc3)c2)c(Cl)c1 [Compound 8g]
IC50 (Cif [5]; [17]): 1.7 µM

CCC(=O)Nc1cc(Cl)c(Oc2ccc(O)c(-c3ccc(NC(N)=O)cc3)c2)c(Cl)c1 [Compound 8i]
IC50 (Cif [5]; [17]): 0.29 µM

CCC(=O)Nc1cc(Cl)c(Oc2ccc(O)c(-c3ccc(C(C)=O)cc3)c2)c(Cl)c1 [Compound 8k]
IC50 (Cif [5]; [17]): 0.35 µM

CCC(=O)Nc1cc(Cl)c(Oc2ccc(O)c(-c3ccc(S(N)(=O)=O)cc3)c2)c(Cl)c1 [Compound 8l]
IC50 (Cif [5]; [17]): 2 µM

CCC(=O)Oc1ccc(NC(=O)NC23CC4CC(CC(C4)C2)C3)cc1 [Entry 1]
inhibition at 10 µM (Cif [6]): 41%

Cc1cc(C)cc(NC(=O)NC(=O)c2c(F)cccc2F)c1 [Entry 3]
inhibition at 10 µM (Cif [6]): 39%

NC(Cc1ccc(Oc2ccc(O)c(I)c2)c(I)c1)C(=O)O (stereo not drawn) [Entry 4]
IC50 (Cif [5]): 80 ± 10 µM

O=C(NC(=O)c1c(F)cccc1F)Nc1cc(Cl)cc(Cl)c1 [Entry 4]
inhibition at 10 µM (Cif [6]): 50%

NC(Cc1cc(I)c(Oc2cc(I)c(O)c(I)c2)c(I)c1)C(=O)O (stereo not drawn) [Entry 6]
IC50 (Cif [5]): > 100 µM

O=C(NC(=O)c1c(F)cccc1F)Nc1ccc(Cl)c(C(F)(F)F)c1 [Entry 6]
inhibition at 10 µM (Cif [6]): 38%
IC50 (Cif [5]): > 100 µM

CN(C(=O)NC(=O)c1c(F)cccc1F)c1ccc(Cl)cc1 [Entry 7]
inhibition at 10 µM (Cif [6]): 40%

Cc1ccc(-c2cc(C(F)(F)F)nn2-c2ccc(S(N)(=O)=O)cc2)cc1 [Entry 9]
inhibition at 10 µM (Cif [6]): 38%

CCC(=O)N1CCC(NC(=O)Nc2ccc([N+](=O)[O-])cc2)CC1 [Entry 10]
inhibition at 10 µM (Cif [6]): 44%

O=C(NC1CCC(Oc2ccc(C(=O)O)cc2)CC1)NC12CC3CC(CC(C3)C1)C2 (stereo not drawn) [Entry 12]
Inhibition (%) (Cif [7]): 14%

COC(=O)c1ccc(NC(=O)NC23CC4CC(CC(C4)C2)C3)cc1O [Entry 13]
Inhibition (%) (Cif [7]): 18%

CC(=O)N1CCC(NC(=O)NC2CCCCCC2)CC1 [Entry 14]
Inhibition (%) (Cif [7]): 6%

O=C(Nc1ccc(OC(F)(F)F)cc1)NC1CCC(Oc2ccc(C(=O)O)cc2)CC1 (stereo not drawn) [Entry 15]
Inhibition (%) (Cif [7]): 17%

CS(=O)(=O)N1CCC(NC(=O)Nc2ccc(OC(F)(F)F)cc2)CC1 [Entry 16]
Inhibition (%) (Cif [7]): 14%

O=C(Nc1ccc(Cl)cc1)Nc1ccc(Cl)cc1 [Entry 17]
Inhibition (%) (Cif [7]): 7%

O=C(Nc1ccc(Cl)c(Cl)c1)Nc1ccc(Cl)c(Cl)c1 [Entry 18, N,N′-di-(3,4-dichlorophenyl) urea]
Inhibition (%) (Cif [7]): 25.5%
inhibition of Cif enzyme activity (Cif [7]; secondary screen of radioactivity assay, P=0.004): 25%
% I, Positive Control Inhibitor, Average (Cif [2]; 10 μM DCPU positive control, average of 20 plates): 20%
% I (percent of the total enzyme activity inhibited), Positive Control Inhibitor (Cif [2]; 10 μM DCPU positive control, per plate of primary screen, listed as Positive Control Inhibitor): 15.2% and 30.0%

CN(C)CCCN1c2ccccc2Sc2ccc(C(F)(F)F)cc21 [Triflupromazine hydrochloride]
inhibition at 10 µM (Cif [2]; [8]): 33%
inhibition at 10 µM (Cif [3]; [9]): 2 ± 6%
inhibition at 10 µM (Cif [3]; [10]): 4%
inhibition at 10 µM (Cif [3]; [11]): 10%
inhibition at 10 µM (Cif [3]; [12]): -2%
inhibition at 10 µM (Cif [3]; [13]): 1%
inhibition at 10 µM (Cif [3]; [14]): 8%
inhibition at 10 µM (Cif [3]; [15]): -6%

O=C(CCCCCCC(=O)Nc1ccccc1)NO [Vorinostat]
inhibition at 10 µM (Cif [2]; [8]): 35%
inhibition at 10 µM (Cif [3]; [9]): 13 ± 6%
inhibition at 10 µM (Cif [3]; [10]): 5%
inhibition at 10 µM (Cif [3]; [11]): 13%
inhibition at 10 µM (Cif [3]; [12]): 8%
inhibition at 10 µM (Cif [3]; [13]): 14%
inhibition at 10 µM (Cif [3]; [14]): 18%
inhibition at 10 µM (Cif [3]; [15]): 22%

CC(=O)CC(c1ccccc1)c1c(O)c2ccccc2oc1=O (stereo not drawn) [Warfarin]
inhibition at 10 µM (Cif [2]; [8]): 32%
inhibition at 10 µM (Cif [3]; [9]): 15 ± 3%
inhibition at 10 µM (Cif [3]; [10]): 12%
inhibition at 10 µM (Cif [3]; [11]): 12%
inhibition at 10 µM (Cif [3]; [12]): 17%
inhibition at 10 µM (Cif [3]; [13]): 15%
inhibition at 10 µM (Cif [3]; [14]): 20%
inhibition at 10 µM (Cif [3]; [15]): 17%

Candicidin
% Inhibition (Cif [2]; [8]): 41%
% Inhibition, Mean ± SD (Cif [3]; secondary screen, 10 μM, mean of six plates): 15 ± 7%
% Inhibition, plate 1 (Cif [3]; secondary screen, 10 μM, plate number 1): 3%
% Inhibition, plate 2 (Cif [3]; secondary screen, 10 μM, plate number 2): 13%
% Inhibition, plate 3 (Cif [3]; secondary screen, 10 μM, plate number 3): 17%
% Inhibition, plate 4 (Cif [3]; secondary screen, 10 μM, plate number 4): 19%
% Inhibition, plate 5 (Cif [3]; secondary screen, 10 μM, plate number 5): 23%
% Inhibition, plate 6 (Cif [3]; secondary screen, 10 μM, plate number 6): 18%
